Experimental data from PMC3983190, “Chemical Derivatives of a Small Molecule Deubiquitinase Inhibitor Have Antiviral Activity against Several RNA Viruses” (PLoS ONE, 2014).
Converted amounts (≈) assume the structure as drawn. Like-named read-outs stand apart in the source and are kept apart here.

Assays:
RNA viruses = assay: Antiviral activity across the panel of RNA viruses tested; format: cell-based; conditions: 5 µM
From the text: (§1) Cells were freeze-thawed twice.

[1] = WST-1 cellular toxicity assay, HG23 replicon-bearing cells; format: cell-based; conditions: human, HG23 Norwalk virus replicon-bearing cells, WST-1 viability
[2] = WST-1 cellular toxicity assay, bone marrow-derived macrophages; conditions: Swiss Webster, mouse
[3] = mouse
[4] = Aqueous solubility as per Lipinski et al.; conditions: for solubility: kinetic from dmso stock
[5] = system: Encephalomyocarditis virus (EMCV); assay: Encephalomyocarditis virus infection of Vero cells, plaque assay; format: cell-based; conditions: 5 µM, 30 minutes pre-treatment, MOI 5, 12 hours
From the text: as §1

MNV-1 [6] = conditions: 5 µM; for decrease in MNV-1 titers compared to DMSO: 30 minute pre-treatment, RAW 264.7, 8 hours; for viral titer decrease compared to DMSO: administered 1 hour post infection, RAW 264.7
Tulane virus = Tulane virus infection of LLC-MK2 cells, plaque assay; format: cell-based; conditions: 5 µM, 30 minutes pre-treatment, MOI 5, 24 hours
From the text: as §1

Sindbis virus = Sindbis virus infection of Vero cells, plaque assay; format: cell-based; conditions: 5 µM, 30 minutes pre-treatment, MOI 5, 12 hours
From the text: as §1

La Crosse virus (LCV) = assay: La Crosse virus infection of Be2-c cells, plaque assay; format: cell-based; conditions: 5 µM, 30 minutes pre-treatment, MOI 5, 12 hours
From the text: as §1

Norwalk virus = assay: HuNoV replicon assay in HG23 cells, Norwalk virus genomes by qRT-PCR; conditions: for reduction of detectable Norwalk virus genomes compared to DMSO: 5 µM, 24 hours, HG23 cells; for EC50: Norwalk virus, HG23, 24 h, read-out: EC50 HG23
physchem = conditions: kinetic from dmso stock
[7] = system: Vesicular Stomatitis Virus (VSV); format: cell-based
MNV-1 [8] = conditions: previously determined by the authors; cited from earlier work
in vitro [9] = conditions: mouse
in vitro [10] = conditions: Swiss Webster, mouse

Row | SMILES | antiviral activity against any of the viruses tested (RNA viruses) | CC50 at 24 h [1] [µM] | CC50 [2] [µM] | CC50 [3] [µM] | solubility [4] [µM] | effect on EMCV infectious titers [5] | expected aqueous solubility (not determined, limited availability) ([4]; relative to WP1130) | decrease in MNV-1 titers compared to DMSO (MNV-1 [6]) [log] | viral titer decrease compared to DMSO (MNV-1 [6]) [log] | effect on Tulane virus infectious titers (Tulane virus) | effect on Sindbis virus infectious titers (Sindbis virus) | effect on La Crosse virus infectious titers (La Crosse virus (LCV)) | reduction of detectable Norwalk virus genomes compared to DMSO (Norwalk virus) | EC50 (Norwalk virus) [µM] | solubility (physchem) [µM] | inhibition of VSV infection [7] | EC50 (MNV-1 [8]) [µM] | CC50 (in vitro [9]) [µM] | CC50 (in vitro [10]) [µM]
1 | CCC[C@H](NC(=O)/C=C/c1cccc(Br)n1)c1ccccc1 [Compound 1] | no antiviral activity | 7.2 | 10.4 | 24.7 | – | – | – | – | – | – | – | – | – | – | – | – | – | – | –
2 | CCC[C@H](NC(=O)C(C#N)Cc1cccc(Br)n1)c1ccccc1 (stereo partly drawn) [Compound 2] | no antiviral activity | 8.71 | 8.53 | 24.9 | – | – | – | – | – | – | – | – | – | – | – | – | – | – | –
3 | CCCC(NC(=O)/C(C#N)=C/c1cccc(Br)n1)c1ccc(OCCN(C)C)cc1 (stereo not drawn) [Compound 3] | no effect | 7.82 | 6.12 | 9.43 | 19 (≈ 8.96 µg/mL) | – | – | – | – | – | – | – | – | – | – | – | – | – | –
4 | CCC(NC(=O)/C(C#N)=C/c1cccc(Br)n1)c1ccc(O)cc1 (stereo not drawn) [Compound 4] | – | 9.26 | 15.2 | 11 | – | only effective against Tulane virus | more soluble than WP1130 but less soluble than compound 7 | 1.95 | 1.73 | effective | only effective against Tulane virus | only effective against Tulane virus | approximately 30% | 6.52 | – | – | – | – | –
5 | CCCC(NC(=O)/C(C#N)=C/c1cccnc1F)c1ccc(OCCN2CCOCC2)cc1 (stereo not drawn) [Compound 5] | – | 7.61 | 11.3 | 15.4 | 14 (≈ 6.34 µg/mL) | only effective against Tulane virus | – | 2.52 | 2.67 | effective | only effective against Tulane virus | only effective against Tulane virus | about 64% | 4.28 | – | – | – | – | –
6 | CCCC(NC(=O)/C(C#N)=C/c1ccccn1)c1ccc(OCCN2CCOCC2)cc1 (stereo not drawn) [Compound 6] | – | 10.4 | 11.1 | 7.46 | 160 (≈ 69.5 µg/mL) | significantly reduced infectious titers | – | 2.55 | 2.50 | significantly reduced infectious titers | significantly reduced infectious titers | significantly reduced infectious titers | about 64% | 4.17 | – | – | – | – | –
7 | CCCC(NC(=O)/C(C#N)=C/c1cccc(F)n1)c1ccc(OCCN2CCOCC2)cc1 (stereo not drawn) [Compound 7] | – | 6.12 | 7.11 | 13.7 | 14 (≈ 6.34 µg/mL) | not of EMCV, although a trend towards antiviral activity was present | – | 2.60 | 1.51 | significantly decreased infection | significantly decreased infection | significantly decreased infection | ~80% | 3.37 | – | – | – | – | –
8 | CCC[C@H](NC(=O)/C(C#N)=C/c1cccc(Br)n1)c1ccccc1 [WP1130, reference compound] | – | 6.2 | – | – | – | significantly reduced infectious titers | – | 2.0 | – | significantly reduced infectious titers | significantly reduced infectious titers | significantly reduced infectious titers | – | – | ~3.2 (≈ 1.23 µg/mL) | not inhibited | 5.06 | 9.95 | 6.46
